Experiments:
[1] = tested on: MAC16 cells; test: Cell growth assay, MAC16 cells in vitro; format: cell-based, mouse
[2] = tested on: eIF2α; test: Western blot of phospho and total eIF2α in MAC16 tumor from treated mice; format: in vivo, mouse; conditions: mice bearing MAC16 tumor
From the text: (§1) Both the MAC16 and MAC13 tumors were passaged in vivo in NMRI mice by transplanting fragments subcutaneously (s.c.) into the flank, as described in Bibby et al., J. Natl. Cancer Inst., 78(3):539-546, 1987. To maintain cachexia, the MAC16 tumor for passage was selected from donor animals with established weight loss, and treatment was initiated when the average weight loss was 5%. Animals were randomized into groups of six to receive solvent (DMSO (dimethylsulfoxide): PBS (phosphate-buffered saline); 1:20) or the PKR inhibitor at 1 and 5 mg/kg administered daily by s.c. injection. Animals were terminated by cervical dislocation when the body weight loss reached 20%. All animal experiments followed a strict protocol approved by the British Home Office, and the ethical guidelines that were followed meet the standards required by the UKCCR guidelines (Workman, P. et al., Br. J. Cancer, 77:1-10, 1998).
(§2) Samples (approximately 10 mg) of tumor were homogenised in 500 μl of PhosphoSafe™ Extraction Reagent and centrifuged at 15,000 g for 15 min at 4° C. Portions of cytosolic protein (10 μg) were resolved on 10% sodium dodecyl sulphate/polyacrylamide gels (SDS/PAGE; 6% for eIF2α). […] Blots were scanned by a densitometer to quantify differences.

[3] = tested on: NF-κB; test: EMSA of nuclear NF-κB in MAC16 tumor from treated mice; format: in vivo, mouse; conditions: mice bearing MAC16 tumor, 5 mg/kg for 4 days (FIG. 7B)
From the text: as §1
DNA-binding proteins were isolated from tumor samples by hypotonic lysis, followed by high salt extraction of nuclei according to the method of Andrews and Faller (Nucleic Acids Res., 19(9):2499, 1991). EMSA was carried out using a Panomics EMSA “gel shift” kit, according to the manufacturer's instructions

[4] = tested on: MAC13 cells; test: Cell growth assay, MAC13 cells in vitro; format: cell-based, mouse; conditions: concentration up to 1000 nM (FIG. 2)
Method: The MAC16 and MAC13 tumors were propagated in vitro in RPMI 1640 medium containing 10% FCS at 37° C., under an atmosphere of 5% CO2 in air. For cell growth assays, cells were seeded at either 0.5×10^5 cells per well (MAC13) or 1×10^5 cells per well (MAC16) in 24 well multi-well dishes and allowed to accumulate for 24 h prior to drug addition. Cell number was determined three days later, whilst the cells were in exponential growth.

[5] = tested on: MAC16 tumor; conditions: cited from earlier work; for tumor growth in mice bearing the MAC16 tumor: literature reports; for loss of body weight of mice bearing MAC-16 tumor: Eley et al., Biochem J. 2007
[6] = target: T1, PKR (Mus musculus, UniProt Q03963); test: Western blot of phospho and total PKR in MAC16 tumor from treated mice; format: in vivo; conditions: mice bearing MAC16 tumor
T1 construct: endogenous in cells; host or cells: MAC16 and MAC13 murine colon adenocarcinoma cells in culture
T1 sequence (Q03963 1-515): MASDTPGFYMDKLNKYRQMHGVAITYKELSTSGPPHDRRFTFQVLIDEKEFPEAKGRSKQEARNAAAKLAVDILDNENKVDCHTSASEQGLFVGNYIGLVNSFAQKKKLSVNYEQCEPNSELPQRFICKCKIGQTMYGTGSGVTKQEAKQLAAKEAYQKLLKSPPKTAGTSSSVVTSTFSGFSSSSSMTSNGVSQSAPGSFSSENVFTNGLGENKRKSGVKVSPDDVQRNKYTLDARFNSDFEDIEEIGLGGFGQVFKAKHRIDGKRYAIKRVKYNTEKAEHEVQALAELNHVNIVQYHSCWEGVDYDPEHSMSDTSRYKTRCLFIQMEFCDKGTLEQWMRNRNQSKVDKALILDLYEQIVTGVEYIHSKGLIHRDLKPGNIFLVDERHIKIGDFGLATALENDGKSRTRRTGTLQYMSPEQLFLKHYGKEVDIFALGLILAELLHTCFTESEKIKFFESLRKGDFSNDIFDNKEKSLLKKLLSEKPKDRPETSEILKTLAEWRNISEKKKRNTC
From the text: as §1, §2

[7] = target: T1, PKR; test: Western blot of phospho and total PKR in MAC16 cells; format: cell-based
Method: (§3) Samples (approximately 10 mg) of tumor were homogenised in 500 μl of PhosphoSafe™ Extraction Reagent and centrifuged at 15,000 g for 15 min at 4° C. Portions of cytosolic protein (10 μg) were resolved on 10% sodium dodecyl sulphate/polyacrylamide gels (SDS/PAGE; 6% for eIF2α). The resolved proteins were transferred onto 0.45 μm nitrocellulose membranes, which had been blocked with 5% Marvel in Tris-buffered saline, pH 7.5, at 4° C. overnight. Membranes were then washed for 15 min in 0.5% Tween-buffered saline, or TBS-Tween, prior to the addition of primary antibodies. The primary antibodies were used at a dilution of 1:1000, except for phospho eIF2α, which was used at 1:500. The primary antibodies were washed off the membranes for 15 min, with buffer changes every 5 min, using 0.1% TBS-Tween. The secondary antibodies were used at a dilution of 1:1000, and were washed off after 45 min. Development was by ECL, and films were developed for 3-6 min. Blots were scanned by a densitometer to quantify differences.

[8] = target: T1, PKR; test: Western blot of phospho and total PKR in MAC13 cells; format: cell-based
Method: as §3

[9] = tested on: 20S proteasome; test: Western blot of 20S proteasome α-subunits in MAC16 cells; format: cell-based, mouse; conditions: MAC16 cells (FIG. 5C)
Method: as §3

[10] = Toxicity in mice treated with the PKR inhibitor; format: in vivo, mouse; conditions: inhibition of autophosphorylation of PKR in mice
From the text: as §1

[11] = tested on: human pancreatic cancer cells; conditions: in vitro, literature reports; cited from earlier work

## O=c1[nH]cc(F)c(=O)[nH]1 [5FU, 5-fluorouracil]
[1]; 5FU alone at concentrations between 1 and 10 μM (FIG. 8)
  growth of MAC16 cells, agent alone: significant inhibition

## O=C1Nc2ccc3ncsc3c2/C1=C/c1c[nH]cn1 [PKR inhibitor, 8-[1-(1H-imidazol-4-yl)meth-(Z)-ylidene]-6,8-dihydro-thiazol[5,4-e]indol-7-one]
[2]; 1 or 5 mg/kg daily s.c.
  total level of eIF2α in MAC16 tumor: without an effect
[2]; 1 or 5 mg/kg daily s.c. (FIG. 4B)
  increased phosphorylation of eIF2α in MAC16 tumor: complete attenuation
[3]
  constitutive activation of NF-κB in the tumor: attenuated
[1]; MAC16 in vitro, cell number after three days, higher concentrations less effective (FIG. 2)
  concentration of maximum inhibition of cell growth: 200 nM
[1]; PKR inhibitor at 100 or 200 nM combined with 5FU 1-10 μM (FIG. 8)
  effect on 5FU-induced inhibition of growth of MAC16 cells: significantly potentiated
[1]; PKR inhibitor at 100 or 200 nM combined with gemcitabine (FIG. 8)
  effect on gemcitabine-induced inhibition of growth of MAC16 cells: potentiated
[4]
  effect on growth of the MAC13 tumor in vitro: no effect
[5]; Eley et al, 2007
  muscle atrophy in mice bearing the MAC16 tumor: attenuated
[5]
  tumor growth in mice bearing the MAC16 tumor: inhibited
[6]; 1 or 5 mg/kg daily s.c.
  total level of PKR in MAC16 tumor: without an effect
[6]; 1 or 5 mg/kg daily s.c. (FIG. 4A)
  increased phosphorylation of PKR in MAC16 tumor: complete attenuation
[7]; MAC16 cells
  effect on total PKR in the cell: In neither cell line was there an effect
[7]; increasing concentrations have a reduced inhibitory effect
  concentration maximally effective in inhibiting PKR: 200 nM
[8]
  effect on total PKR in the cell: In neither cell line was there an effect
[8]; low levels of autophosphorylation (FIG. 5B)
  effect on autophosphorylation of PKR: no effect
[9]
  expression of the 20S proteasome: attenuated
[10]
  toxicity in mice: did not produce toxicity

## CC(C)C[C@H](NC(=O)[C@H](Cc1ccccc1)NC(=O)c1cnccn1)B(O)O [PS-341]
[11]
  growth / proliferation of human pancreatic cancer cells: block proliferation

## COc1cc(/C=C/C(=O)CC(=O)/C=C/c2ccc(O)c(OC)c2)ccc1O [curcumin]
[11]
  growth / proliferation of human pancreatic cancer cells: inhibits

## Nc1ccn([C@@H]2O[C@H](CO)[C@@H](O)C2(F)F)c(=O)n1 [gemcitabine, Gemcitabine]
[1]; gemcitabine alone, 3.8-38 μM (FIG. 8)
  growth of MAC16 cells, agent alone: inhibition of growth

## CC(C)C[C@H](N)C(=O)O [leucine]
[5]
  loss of body weight of mice bearing MAC-16 tumor: significantly suppress

## Oc1ccc(C=Cc2cc(O)cc(O)c2)cc1 [resveratrol]
[5]
  tumor growth in mice bearing the MAC16 tumor: inhibited

## CC(C)[C@H](N)C(=O)O [valine]
[5]
  loss of body weight of mice bearing MAC-16 tumor: significantly suppress

From patent US20110077198A1, “COMPOSITIONS AND METHODS FOR INHIBITING THE ACTIVATION OF DSRNA-DEPENDENT PROTEIN KINASE AND TUMOR GROWTH INHIBITION” (priority 2007, published 2011)
